# Laboratory results from ChEMBL document CHEMBL5108027, “An unanticipated discovery of novel naphthalimidopropanediols as potential broad-spectrum antibacterial members” (Eur J Med Chem, 2022).
# Active and inactive are the calls of the source. The rule behind the calls is not given here.
# Experiments:
# Staphylococcus aureus [1] = assay: Antibacterial activity against methicillin-resistant Staphylococcus aureus N315 measured by Muller-Hinton broth based microdilution assay; assay type: functional
# Enterococcus faecalis = assay: Antibacterial activity against Enterococcus faecalis measured by Muller-Hinton broth based microdilution assay; assay type: functional
# Staphylococcus aureus [2] = assay: Antibacterial activity against Staphylococcus aureus measured by Muller-Hinton broth based microdilution assay; assay type: functional
# Staphylococcus aureus [3] = assay: Antibacterial activity against Staphylococcus aureus ATCC 25923 measured by Muller-Hinton broth based microdilution assay; assay type: functional
# Staphylococcus aureus [4] = assay: Antibacterial activity against Staphylococcus aureus ATCC 29213 measured by Muller-Hinton broth based microdilution assay; assay type: functional
# Klebsiella pneumoniae = assay: Antibacterial activity against Klebsiella pneumoniae measured by Muller-Hinton broth based microdilution assay; assay type: functional
# Escherichia coli [5] = assay: Antibacterial activity against Escherichia coli measured by Muller-Hinton broth based microdilution assay; assay type: functional
# Pseudomonas aeruginosa [6] = assay: Antibacterial activity against Pseudomonas aeruginosa measured by Muller-Hinton broth based microdilution assay; assay type: functional
# Acinetobacter baumannii = assay: Antibacterial activity against Acinetobacter baumannii measured by Muller-Hinton broth based microdilution assay; assay type: functional
# Pseudomonas aeruginosa [7] = assay: Antibacterial activity against Pseudomonas aeruginosa ATCC 27853 measured by Muller-Hinton broth based microdilution assay; assay type: functional
# Escherichia coli [8] = assay: Antibacterial activity against Escherichia coli ATCC 25922 measured by Muller-Hinton broth based microdilution assay; assay type: functional
# [9] = Hemolytic activity in human RBC measured after 1 hr; assay type: toxicity, cell-based, Erythrocyte; settings: human red blood cells (erythrocytes)
# [10] = Selectivity ratio of HC50 for hemolytic activity in human RBC to MIC for antibacterial activity against Staphylococcus aureus; assay type: toxicity; settings: human red blood cells (erythrocytes)
# [11] = Hemolytic activity in human RBC assessed as hemolytic rate at 2 to 512 ug/ml and measured after 1 hr; assay type: toxicity, cell-based, Erythrocyte; settings: human red blood cells (erythrocytes), at 2 to 512 µg/mL, dose 2-512 µg/ml, read-out: Activity
# Staphylococcus aureus [12] = assay: Antibacterial activity against Staphylococcus aureus measured after 16 passages by resistance development assay; assay type: functional, organism-based
# Staphylococcus aureus [13] = assay: Inhibition of bacterial growth of Staphylococcus aureus at 1 to 2 times MIC; assay type: functional
# Staphylococcus aureus [14] = assay: Bactericidal activity against Staphylococcus aureus assessed as reduction in number of colonies at 0.5 to 2 times MIC measured within 6 hrs by time-kill assay; assay type: functional, organism-based
# Staphylococcus aureus [15] = assay: Induction of membrane depolarization in Staphylococcus aureus at 0.5 to 2 times MIC measured upto 1 hr by DiSC35 dye-based fluorescence assay; assay type: functional, organism-based
# Staphylococcus aureus [16] = assay: Induction of inner membrane permeabilization in Staphylococcus aureus by measuring increase in fluorescence intensity at 1 to 8 times MIC by calcein-AM/PI staining based fluorescence analysis; assay type: functional, organism-based
# Staphylococcus aureus [17] = assay: Disruption of membrane integrity in Staphylococcus aureus at 8 times MIC by calcein-AM/PI staining based fluorescence analysis; assay type: functional, organism-based
# Staphylococcus aureus [18] = assay: Antibacterial activity against Staphylococcus aureus assessed as deformed and shriveled cell structures at 1 to 2 ug/ml measured by SEM analysis; assay type: functional, organism-based; settings: dose 1-2 µg/ml
# Escherichia coli [19] = assay: Antibacterial activity against Escherichia coli assessed as deformed and shriveled cell structures at 8 to 16 ug/ml measured by SEM analysis; assay type: functional, organism-based; settings: dose 8-16 µg/ml
# Staphylococcus aureus [20] = assay: Antibacterial activity against Staphylococcus aureus assessed as lysed debris at 1 to 2 ug/ml measured by SEM analysis; assay type: functional, organism-based; settings: dose 1-2 µg/ml
# Escherichia coli [21] = assay: Antibacterial activity against Escherichia coli assessed as lysed debris at 8 to 16 ug/ml measured by SEM analysis; assay type: functional, organism-based; settings: dose 8-16 µg/ml
# Staphylococcus aureus [22] = assay: Disruption of membrane integrity in Staphylococcus aureus assessed as increase in nucleic acid leakage by measuring increase in absorbance 1 to 8 times MIC measured for 6 hrs by spectrophotometry; assay type: functional, organism-based
# Staphylococcus aureus [23] = assay: Disruption of membrane integrity in Staphylococcus aureus assessed as increase in protein leakage by measuring increase in absorbance 1 to 8 times MIC measured for 6 hrs by Bradford assay; assay type: functional, organism-based
# Staphylococcus aureus [24] = assay: Antibacterial activity against Staphylococcus aureus assessed as reduction in LDH activity at 1 to 8 times MIC measured after 6 hrs by microplate reader method; assay type: functional; design: scale not given: the % may be the effect or the level left
# Staphylococcus aureus [25] = assay: Induction of oxidative stress in Staphylococcus aureus assessed as increase in intracellular ROS level at 1 to 8 times MIC measured after 6 hrs by DCFH-DA staining method; assay type: functional, organism-based
# Staphylococcus aureus [26] = assay: Induction of oxidative stress in Staphylococcus aureus assessed as decrease in GSH activity at 1 to 8 times MIC measured after 6 hrs by Ellman's assay; assay type: functional, organism-based
# Staphylococcus aureus [27] = assay: Antibacterial activity against Staphylococcus aureus assessed as reduction in metabolic activity at 1 to 8 times MIC measured after 6 hrs by Alamar blue assay; assay type: functional, organism-based
# Staphylococcus aureus [28] = assay: Inhibition of biofilm formation in Staphylococcus aureus at 1 to 8 times MIC measured after 24 hrs by crystal violet staining method; assay type: functional, organism-based
# Staphylococcus aureus [29] = assay: Antibiofilm activity in Staphylococcus aureus at 1 to 8 times MIC measured by Alamar blue assay; assay type: functional, organism-based
# L929 = assay: Cytotoxicity against mouse L929 cells assessed as effect on cell growth at 0.25 to 0.5 ug/ml incubated for 24 hrs by MTT assay; assay type: toxicity, cell-based; settings: l929, 24 h, dose 0.25-0.5 µg/ml
# [30] = Toxicity in systemic sepsis mouse model infected with Staphylococcus aureus assessed as effect on liver morphology at 2.5 to 5 mg/kg administered every 12 hrs for 3 days and measured by H and E staining-based assay; assay type: organism-based; settings: in vivo, 72 h, dose 2.5-5 mg/kg, time 3 day
# [31] = Toxicity in systemic sepsis mouse model infected with Staphylococcus aureus assessed as effect on spleen morphology at 2.5 to 5 mg/kg administered every 12 hrs for 3 days and measured by H and E staining-based assay; assay type: organism-based; settings: in vivo, 72 h, dose 2.5-5 mg/kg, time 3 day
# [32] = Toxicity in systemic sepsis mouse model infected with Staphylococcus aureus assessed as effect on kidney morphology at 2.5 to 5 mg/kg administered every 12 hrs for 3 days and measured by H and E staining-based assay; assay type: organism-based; settings: in vivo, 72 h, dose 2.5-5 mg/kg, time 3 day
# [33] = Selectivity ratio of HC50 for hemolytic activity in human RBC to MIC for antibacterial activity against Pseudomonas aeruginosa; assay type: toxicity; settings: human red blood cells (erythrocytes)
# Pseudomonas aeruginosa [34] = assay: Antibacterial activity against Pseudomonas aeruginosa measured after 16 passages by resistance development assay; assay type: functional, organism-based
# Pseudomonas aeruginosa [35] = assay: Inhibition of bacterial growth of Pseudomonas aeruginosa at 1 to 2 times MIC; assay type: functional
# Pseudomonas aeruginosa [36] = assay: Bactericidal activity against Pseudomonas aeruginosa assessed as reduction in number of colonies at 0.5 to 2 times MIC measured within 6 hrs by time-kill assay; assay type: functional, organism-based
# Pseudomonas aeruginosa [37] = assay: Induction of membrane depolarization in Pseudomonas aeruginosa at 0.5 to 2 times MIC measured upto 1 hr by DiSC35 dye-based fluorescence assay; assay type: functional, organism-based
# Pseudomonas aeruginosa [38] = assay: Induction of outer membrane permeabilization in Pseudomonas aeruginosa preincubated for 30 mins at 1 to 8 times MIC measured by NPN fluorescent dye based assay; assay type: functional, organism-based
# Pseudomonas aeruginosa [39] = assay: Induction of inner membrane permeabilization in Pseudomonas aeruginosa by measuring increase in fluorescence intensity at 1 to 8 times MIC by calcein-AM/PI staining based fluorescence analysis; assay type: functional, organism-based
# Pseudomonas aeruginosa [40] = assay: Disruption of membrane integrity in Pseudomonas aeruginosa at 8 times MIC by calcein-AM/PI staining based fluorescence analysis; assay type: functional, organism-based
# Pseudomonas aeruginosa [41] = assay: Disruption of membrane integrity in Pseudomonas aeruginosa assessed as increase in nucleic acid leakage by measuring increase in absorbance 1 to 8 times MIC measured for 6 hrs by spectrophotometry; assay type: functional, organism-based
# Pseudomonas aeruginosa [42] = assay: Disruption of membrane integrity in Pseudomonas aeruginosa assessed as increase in protein leakage by measuring increase in absorbance 1 to 8 times MIC measured for 6 hrs by Bradford assay; assay type: functional, organism-based
# Pseudomonas aeruginosa [43] = assay: Antibacterial activity against Pseudomonas aeruginosa assessed as reduction in LDH activity at 1 to 8 times MIC measured after 6 hrs by microplate reader method; assay type: functional; design: scale not given: the % may be the effect or the level left
# Pseudomonas aeruginosa [44] = assay: Induction of oxidative stress in Pseudomonas aeruginosa assessed as increase in intracellular ROS level at 1 to 8 times MIC measured after 6 hrs by DCFH-DA staining method; assay type: functional, organism-based
# Pseudomonas aeruginosa [45] = assay: Induction of oxidative stress in Pseudomonas aeruginosa assessed as decrease in GSH activity at 1 to 8 times MIC measured after 6 hrs by Ellman's assay; assay type: functional, organism-based
# Pseudomonas aeruginosa [46] = assay: Antibacterial activity against Pseudomonas aeruginosa assessed as reduction in metabolic activity at 1 to 8 times MIC measured after 6 hrs by Alamar blue assay; assay type: functional, organism-based
# Pseudomonas aeruginosa [47] = assay: Inhibition of biofilm formation in Pseudomonas aeruginosa at 1 to 8 times MIC measured after 24 hrs by crystal violet staining method; assay type: functional, organism-based
# Pseudomonas aeruginosa [48] = assay: Antibiofilm activity in Pseudomonas aeruginosa at 1 to 8 times MIC measured by Alamar blue assay; assay type: functional, organism-based
smiles,measurement,setting,value
CCn1c2ccccc2c2cc(/C=N/Nc3ccc4c5c(cccc35)C(=O)N(C(CO)CO)C4=O)ccc21,MIC,Staphylococcus aureus [1],64 µg/mL
same,MIC,Enterococcus faecalis,8 µg/mL
same,MIC,Staphylococcus aureus [2],0.25 µg/mL
same,MIC,Staphylococcus aureus [3],2 µg/mL
same,MIC,Staphylococcus aureus [4],0.5 µg/mL
same,MIC,Klebsiella pneumoniae,8 µg/mL
same,MIC,Escherichia coli [5],8 µg/mL
same,MIC,Pseudomonas aeruginosa [6],64 µg/mL
same,MIC,Acinetobacter baumannii,64 µg/mL
same,MIC,Pseudomonas aeruginosa [7],2 µg/mL
same,MIC,Escherichia coli [8],128 µg/mL
same,HC50 at 1 h,[9],722 µg/mL
same,selectivity ratio,[10],2890
same,hemolysis at 1 h,[11],< 5%
same,Activity,Staphylococcus aureus [12],Active
same,inhibition,Staphylococcus aureus [13],Active
same,Activity,Staphylococcus aureus [14],Active
same,Activity,Staphylococcus aureus [15],Active
same,Activity,Staphylococcus aureus [16],Active
same,Activity,Staphylococcus aureus [17],Active
same,Activity,Staphylococcus aureus [18],Active
same,Activity,Escherichia coli [19],Active
same,Activity,Staphylococcus aureus [20],Active
same,Activity,Escherichia coli [21],Active
same,Activity,Staphylococcus aureus [22],Active
same,Activity,Staphylococcus aureus [23],Active
same,Activity,Staphylococcus aureus [24],70%
same,Activity,Staphylococcus aureus [25],Active
same,Activity,Staphylococcus aureus [26],Active
same,Activity,Staphylococcus aureus [27],Active
same,inhibition,Staphylococcus aureus [28],Active
same,Activity,Staphylococcus aureus [29],Active
same,Activity,L929,Non-Toxic
same,Activity,[30],Non-Toxic
same,Activity,[31],Non-Toxic
same,Activity,[32],Non-Toxic
COc1ccc(/C=N/Nc2ccc3c4c(cccc24)C(=O)N(C(CO)CO)C3=O)cc1,MIC,Staphylococcus aureus [1],64 µg/mL
same,MIC,Enterococcus faecalis,64 µg/mL
same,MIC,Staphylococcus aureus [2],32 µg/mL
same,MIC,Staphylococcus aureus [3],64 µg/mL
same,MIC,Staphylococcus aureus [4],128 µg/mL
same,MIC,Klebsiella pneumoniae,32 µg/mL
same,MIC,Escherichia coli [5],16 µg/mL
same,MIC,Pseudomonas aeruginosa [6],0.5 µg/mL
same,MIC,Acinetobacter baumannii,64 µg/mL
same,MIC,Pseudomonas aeruginosa [7],2 µg/mL
same,MIC,Escherichia coli [8],64 µg/mL
same,HC50 at 1 h,[9],> 1000 µg/mL
same,selectivity ratio,[33],> 2000
same,hemolysis at 1 h,[11],< 5%
same,Activity,Pseudomonas aeruginosa [34],Active
same,inhibition,Pseudomonas aeruginosa [35],Active
same,Activity,Pseudomonas aeruginosa [36],Active
same,Activity,Pseudomonas aeruginosa [37],Active
same,Activity,Pseudomonas aeruginosa [38],Active
same,Activity,Pseudomonas aeruginosa [39],Active
same,Activity,Pseudomonas aeruginosa [40],Active
same,Activity,Pseudomonas aeruginosa [41],Active
same,Activity,Pseudomonas aeruginosa [42],Active
same,Activity,Pseudomonas aeruginosa [43],70%
same,Activity,Pseudomonas aeruginosa [44],Active
same,Activity,Pseudomonas aeruginosa [45],Active
same,Activity,Pseudomonas aeruginosa [46],Active
same,inhibition,Pseudomonas aeruginosa [47],Active
same,Activity,Pseudomonas aeruginosa [48],Active
same,Activity,L929,Non-Toxic
